What is called Papp A→B is the apparent permeability from the apical to the basolateral side of a cell layer. Low values mean poor permeation, high ones ready permeation. Broadly, the Papp B→A is the apparent permeability from the basolateral to the apical side of a cell layer.

Bounds are passed on as bounds.

Results on six compounds are retold here after patent US20210379067A1 (iOmx Therapeutics AG, priority 2018, published 2021).

The subject of one data set is KU812 tumours. As to conditions: large KU812 tumours; 50 mg/kg/day for 5 days; cited from earlier work.
The subject of another data set is K562 CML cells. As to conditions: similar study, cited from earlier work.
The test system of the next data set is PANC-1-luc cells. The experiment in a line: Sensitisation of tumour cells to in-vitro TNF attack (luciferase-based killing assay). The data set is classed as cell-based, human. To be noted: compound plus rHuTNF (10 ng/mL) vs compound alone; FIG. 6. The procedure:
R&D Systems), and also the speed of onset of this effect. PANC1-luc is an HLA-A2.1+ luciferase-expressing pancreatic adenocarcinoma (PDAC) tumour cell line, and […]-A2-luc is an HLA-A2.1+ luciferase-expressing melanoma tumour cell line. […] After lysis, luciferase assay buffer is added and immediately the luciferase intensity was measured by using the TECAN-Spark microplate reader. The PANC1-luc cell line is constructed as follows: PANC-1 cells acquired from the American Type Cell Culture (ATCC). Tumour cells are transfected with a pEGFP-Luc plasmid, using TransIT-LT1 (Mirus) as transfection reagent. Transfected cells are selected with 1 mg/mL of G418/Geneticin, and 14 days after selection EGFP+ cells are sorted using, eg a BD […] II cell sorter.

The next data set has as its target T1, RAF1 (Homo sapiens, UniProt P04049, Y340D/Y341D).
T1 construct: purchased ProQinase, Freiburg, Germany (Kinase Profiler service)
The experiment in a line: Kinase Profiler single-point (1 uM) inhibition. Format: biochemical. To be noted: 1 uM compound, read-out: residual activity class (FIG. 3).

The next data set deals with T2, JAK1 aa583-1154 wt (Homo sapiens, UniProt P23458).
T2 construct: JAK1 aa583-1154 wt; purchased ProQinase
T2 sequence (P23458 583-1154): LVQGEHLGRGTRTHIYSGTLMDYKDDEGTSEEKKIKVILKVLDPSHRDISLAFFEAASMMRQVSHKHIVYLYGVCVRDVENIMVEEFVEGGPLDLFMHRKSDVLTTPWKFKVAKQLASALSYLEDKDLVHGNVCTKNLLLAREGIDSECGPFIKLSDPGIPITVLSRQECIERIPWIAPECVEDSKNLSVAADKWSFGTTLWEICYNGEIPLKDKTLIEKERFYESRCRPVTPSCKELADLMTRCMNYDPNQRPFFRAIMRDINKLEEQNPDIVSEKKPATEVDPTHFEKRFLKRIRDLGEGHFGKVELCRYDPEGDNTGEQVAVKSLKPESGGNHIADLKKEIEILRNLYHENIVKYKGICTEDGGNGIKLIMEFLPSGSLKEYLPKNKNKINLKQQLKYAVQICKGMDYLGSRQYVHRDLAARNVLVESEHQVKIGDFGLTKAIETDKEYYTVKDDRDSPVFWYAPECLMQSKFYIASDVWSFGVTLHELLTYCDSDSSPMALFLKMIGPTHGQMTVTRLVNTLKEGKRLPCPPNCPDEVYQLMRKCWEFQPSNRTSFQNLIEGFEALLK
Put plainly: Kinase Profiler single-point (1 uM) inhibition. Format: biochemical.

A further data set concerns M579-A2-luc cells. The experiment in a line: Sensitisation of tumour cells to in-vitro TNF attack (luciferase-based viability readout). Format: cell-based, human. To be noted: TNF 10 ng/mL; compound between about 10 and 100 nM; FIG. 7. The procedure:
PANC1-luc is an HLA-A2.1+ luciferase-expressing pancreatic adenocarcinoma (PDAC) tumour cell line, and M579-A2-luc is an HLA-A2.1+ luciferase-expressing melanoma tumour cell line.
After lysis, luciferase assay buffer is added and immediately the luciferase intensity was measured by using the TECAN-Spark microplate reader.

For another data set, the target named is T3, SIK1 (Homo sapiens, UniProt P57059).
T3 construct: purchased ProQinase
T3 sequence (P57059 whole entry): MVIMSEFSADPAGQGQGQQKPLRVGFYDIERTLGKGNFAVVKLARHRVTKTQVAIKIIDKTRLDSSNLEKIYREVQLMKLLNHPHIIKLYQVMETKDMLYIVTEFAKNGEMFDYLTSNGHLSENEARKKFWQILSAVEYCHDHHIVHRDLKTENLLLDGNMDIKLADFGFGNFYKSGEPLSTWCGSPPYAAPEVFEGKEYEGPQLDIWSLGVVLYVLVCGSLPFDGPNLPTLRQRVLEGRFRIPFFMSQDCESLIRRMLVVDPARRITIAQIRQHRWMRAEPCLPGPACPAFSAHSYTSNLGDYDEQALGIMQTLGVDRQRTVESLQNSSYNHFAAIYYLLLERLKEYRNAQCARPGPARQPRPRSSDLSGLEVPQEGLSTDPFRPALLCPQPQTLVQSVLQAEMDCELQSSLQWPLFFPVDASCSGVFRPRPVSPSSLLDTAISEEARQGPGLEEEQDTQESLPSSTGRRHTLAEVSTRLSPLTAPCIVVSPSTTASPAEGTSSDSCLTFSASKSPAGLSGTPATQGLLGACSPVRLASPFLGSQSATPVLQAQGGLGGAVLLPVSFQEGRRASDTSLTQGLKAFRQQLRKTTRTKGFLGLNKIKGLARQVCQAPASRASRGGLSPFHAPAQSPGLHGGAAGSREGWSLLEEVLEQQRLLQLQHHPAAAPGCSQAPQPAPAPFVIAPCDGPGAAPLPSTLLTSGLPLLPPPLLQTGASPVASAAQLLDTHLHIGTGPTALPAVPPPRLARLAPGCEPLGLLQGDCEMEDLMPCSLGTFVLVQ
The experiment in a line: 33PanQinase radiometric protein kinase assay (IC50). The data set is classed as biochemical. On the procedure:
(§1) Incorporation of 33Pi was determined with a microplate scintillation counter (Microbeta, Wallac).

Another data set concerns the target T4, SIK3 (Homo sapiens, UniProt Q9Y2K2).
T4 construct: purchased ProQinase
The description is as above. Format: biochemical. On the procedure:
as §1

The next data set addresses T5, SIK2 (Homo sapiens, UniProt Q9H0K1).
T5 construct: purchased ProQinase
Described as above. The data set is classed as biochemical. The procedure:
as §1

Data set [1] can be described thus: Human liver microsomal stability. Format: in vitro ADME. On the technique in general: Liver microsomes are vesicles of endoplasmic reticulum, rich in cytochrome P450 enzymes.
Another data set can be described thus: in vitro. As to conditions: dog, MDCK.
In a further data set the test system is MDR1. The experiment in a line: in vitro. To be noted: dog, MDCK-MDR1.
Data set [2] can be described thus: Mouse liver microsomal stability. The data set is classed as in vitro ADME. To be noted: liver microsomes, read-out: Intrinsic clearance.
In the next data set the target is T6, ABL1 wt (Homo sapiens, UniProt P00519).
T6 construct: the ABL1 wild-type protein (amino acids P118-S525); purchased ProQinase
T6 sequence (P00519 118-535 limits assumed): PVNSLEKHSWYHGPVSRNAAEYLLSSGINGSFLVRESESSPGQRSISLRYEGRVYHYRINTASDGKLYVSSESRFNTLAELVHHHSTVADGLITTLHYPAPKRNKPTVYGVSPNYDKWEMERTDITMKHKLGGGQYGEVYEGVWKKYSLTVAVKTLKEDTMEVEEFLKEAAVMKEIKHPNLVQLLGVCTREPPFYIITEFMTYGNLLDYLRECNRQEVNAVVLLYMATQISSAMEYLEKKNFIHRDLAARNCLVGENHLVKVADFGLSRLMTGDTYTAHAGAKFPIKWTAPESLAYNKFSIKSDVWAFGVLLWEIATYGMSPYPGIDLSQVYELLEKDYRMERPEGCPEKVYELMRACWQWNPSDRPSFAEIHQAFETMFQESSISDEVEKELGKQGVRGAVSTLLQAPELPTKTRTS
Put plainly: 33PanQinase radiometric protein kinase assay (IC50). The data set is classed as biochemical. The procedure:
as §1

The target of another data set is T7, SRC (Homo sapiens, UniProt P12931).
T7 construct: GST; HIS; purchased ProQinase (inferred from the trademark)
T7 sequence (P12931 whole entry): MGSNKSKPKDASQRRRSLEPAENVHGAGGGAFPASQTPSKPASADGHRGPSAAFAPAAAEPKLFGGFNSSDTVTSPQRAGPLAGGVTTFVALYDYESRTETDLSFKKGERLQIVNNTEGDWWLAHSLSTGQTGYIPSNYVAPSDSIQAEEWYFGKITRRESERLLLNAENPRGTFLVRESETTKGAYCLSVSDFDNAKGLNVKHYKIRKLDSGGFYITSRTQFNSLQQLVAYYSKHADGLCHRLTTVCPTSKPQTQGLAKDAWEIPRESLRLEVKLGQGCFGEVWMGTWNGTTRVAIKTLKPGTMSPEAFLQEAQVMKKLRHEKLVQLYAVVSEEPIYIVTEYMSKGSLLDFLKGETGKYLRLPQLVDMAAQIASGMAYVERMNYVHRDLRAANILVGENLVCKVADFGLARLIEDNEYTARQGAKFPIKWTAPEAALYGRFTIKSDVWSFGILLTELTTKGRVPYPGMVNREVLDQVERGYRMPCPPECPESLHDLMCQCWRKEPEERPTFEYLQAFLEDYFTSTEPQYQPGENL
The data set is described as above. The data set is classed as biochemical. On the procedure: as §1

Another data set has as its system K562 human CML tumours. As to conditions: high doses; cited from earlier work.

T5 sequence (Q9H0K1 whole entry): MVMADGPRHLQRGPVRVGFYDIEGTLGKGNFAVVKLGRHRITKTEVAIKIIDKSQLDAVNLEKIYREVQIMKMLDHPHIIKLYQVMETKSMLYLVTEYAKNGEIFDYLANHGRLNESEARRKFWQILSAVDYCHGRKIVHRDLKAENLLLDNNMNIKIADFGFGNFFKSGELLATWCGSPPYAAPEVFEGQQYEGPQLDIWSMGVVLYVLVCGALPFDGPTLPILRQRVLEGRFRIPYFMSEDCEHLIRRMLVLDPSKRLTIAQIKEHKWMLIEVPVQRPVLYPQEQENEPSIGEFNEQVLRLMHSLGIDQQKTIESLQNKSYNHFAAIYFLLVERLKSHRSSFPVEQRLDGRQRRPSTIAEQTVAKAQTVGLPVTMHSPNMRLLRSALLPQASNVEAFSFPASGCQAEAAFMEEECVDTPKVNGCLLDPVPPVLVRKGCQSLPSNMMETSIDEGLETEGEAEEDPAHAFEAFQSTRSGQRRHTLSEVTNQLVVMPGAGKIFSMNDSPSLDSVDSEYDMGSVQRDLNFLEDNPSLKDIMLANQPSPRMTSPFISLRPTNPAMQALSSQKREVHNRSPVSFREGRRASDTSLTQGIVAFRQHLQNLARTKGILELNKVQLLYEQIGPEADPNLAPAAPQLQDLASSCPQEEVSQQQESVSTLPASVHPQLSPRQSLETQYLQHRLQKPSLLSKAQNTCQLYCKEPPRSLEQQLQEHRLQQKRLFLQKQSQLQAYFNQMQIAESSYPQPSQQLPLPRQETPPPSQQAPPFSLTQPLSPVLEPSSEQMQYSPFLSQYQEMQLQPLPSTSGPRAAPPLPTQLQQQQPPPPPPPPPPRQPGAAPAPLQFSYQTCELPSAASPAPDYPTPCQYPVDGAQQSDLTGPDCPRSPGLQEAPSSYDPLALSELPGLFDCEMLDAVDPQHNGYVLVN
T4 sequence (Q9Y2K2 whole entry): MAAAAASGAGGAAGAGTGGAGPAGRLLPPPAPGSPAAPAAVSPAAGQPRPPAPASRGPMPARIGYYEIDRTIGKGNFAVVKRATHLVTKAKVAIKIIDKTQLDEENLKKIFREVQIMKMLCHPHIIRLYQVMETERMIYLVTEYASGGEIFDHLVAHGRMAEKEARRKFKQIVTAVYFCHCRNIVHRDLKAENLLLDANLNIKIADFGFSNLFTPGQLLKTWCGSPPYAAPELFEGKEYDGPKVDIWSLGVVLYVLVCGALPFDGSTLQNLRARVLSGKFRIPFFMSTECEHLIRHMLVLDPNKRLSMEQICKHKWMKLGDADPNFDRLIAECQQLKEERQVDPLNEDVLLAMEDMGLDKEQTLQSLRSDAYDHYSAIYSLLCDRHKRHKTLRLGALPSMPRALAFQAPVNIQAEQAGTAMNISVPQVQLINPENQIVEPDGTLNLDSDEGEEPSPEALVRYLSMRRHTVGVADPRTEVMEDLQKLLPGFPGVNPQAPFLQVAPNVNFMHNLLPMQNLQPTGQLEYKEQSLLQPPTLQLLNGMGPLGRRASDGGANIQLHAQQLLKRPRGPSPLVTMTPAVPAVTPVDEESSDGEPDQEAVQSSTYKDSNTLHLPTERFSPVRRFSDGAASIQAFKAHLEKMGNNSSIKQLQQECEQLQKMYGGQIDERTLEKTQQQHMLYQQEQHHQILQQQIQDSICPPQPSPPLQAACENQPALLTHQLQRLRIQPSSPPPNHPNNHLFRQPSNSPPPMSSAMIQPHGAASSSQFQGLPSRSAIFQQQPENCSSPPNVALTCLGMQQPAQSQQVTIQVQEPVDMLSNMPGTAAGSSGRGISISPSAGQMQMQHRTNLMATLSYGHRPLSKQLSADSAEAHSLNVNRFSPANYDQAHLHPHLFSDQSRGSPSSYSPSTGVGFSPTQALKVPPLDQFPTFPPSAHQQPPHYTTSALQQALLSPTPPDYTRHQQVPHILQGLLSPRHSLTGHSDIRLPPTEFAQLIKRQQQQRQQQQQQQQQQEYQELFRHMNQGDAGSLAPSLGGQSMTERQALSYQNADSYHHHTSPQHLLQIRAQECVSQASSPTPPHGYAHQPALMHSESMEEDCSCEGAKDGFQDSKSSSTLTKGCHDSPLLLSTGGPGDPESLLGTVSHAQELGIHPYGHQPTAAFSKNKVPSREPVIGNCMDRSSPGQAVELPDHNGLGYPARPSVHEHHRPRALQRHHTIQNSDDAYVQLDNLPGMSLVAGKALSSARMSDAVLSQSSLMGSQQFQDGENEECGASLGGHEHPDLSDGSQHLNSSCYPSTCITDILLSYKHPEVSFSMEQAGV
T1 sequence (P04049 307-648 Y340D/Y341D limits assumed): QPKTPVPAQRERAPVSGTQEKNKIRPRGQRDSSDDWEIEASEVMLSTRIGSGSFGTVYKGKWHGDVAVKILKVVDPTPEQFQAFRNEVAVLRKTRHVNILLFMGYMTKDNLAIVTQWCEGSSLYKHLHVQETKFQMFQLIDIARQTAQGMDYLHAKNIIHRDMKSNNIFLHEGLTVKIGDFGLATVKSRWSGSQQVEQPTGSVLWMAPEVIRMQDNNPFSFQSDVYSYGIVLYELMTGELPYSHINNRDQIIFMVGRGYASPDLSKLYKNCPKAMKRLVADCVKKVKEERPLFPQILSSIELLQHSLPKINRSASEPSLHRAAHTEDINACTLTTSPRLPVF

Take `Cc1nc(Nc2ncc(C(=O)Nc3c(C)cccc3Cl)s2)cc(N2CCN(CCO)CC2)n1` [Compound A8, N-(2-chloro-6-methylphenyl)-2-((6-(4-(2-hydroxyethyl)piperazin-1-yl)-2-methylpyrimidin-4-yl)amino)thiazole-5-carboxamide]: the tumour response entry in the data set with KU812 tumours is recorded as “curative”. Moreover, the survival result in the data set on K562 CML cells (10 and 30 mg/kg/day) is reported as “increased survival”. Further, the “sensitisation of tumour cells to TNF attack” value with PANC-1-luc cells is given as “sensitisation of tumour-cells to in-vitro TNF-attack”. Further, at RAF1, the remaining activity at 1 µM was below 25%. Further, the “Residual activity (%) at 1 uM” value at JAK1 aa583-1154 wt amounted to 41%.

Turning to `Cc1nc(Nc2ncc(C(=O)Nc3c(Cl)cccc3Br)s2)cc(N2CCN(CCO)CC2)n1` [Compound B1, N-(2-bromo-6-chlorophenyl)-2-((6-(4-(2-hydroxyethyl)piperazin-1-yl)-2-methylpyrimidin-4-yl)amino)thiazole-5-carboxamide], the “tumour cell cytotoxicity with TNF compared to inhibitor alone” value in the data set with M579-A2-luc cells was “increased cytotoxicity”. The “inhibitory activity” value is “pan-SIK and ABL1 & SRC inhibitor” on SIK1; “pan-SIK and ABL1 & SRC inhibitor” against SIK3; “pan-SIK and ABL1 & SRC inhibitor” against SIK2.

Consider `Cc1nc(Nc2ncc(C(=O)Nc3c(Cl)ccnc3C)s2)cc(N2CCN(CCO)CC2)n1` [Compound B3, N-(4-chloro-2-methylpyridin-3-yl)-2-((6-(4-(2-hydroxyethyl)piperazin-1-yl)-2-methylpyrimidin-4-yl)amino)thiazole-5-carboxamide], for which, in [1] (hLM assay), the “drug remaining at 40 min, times more than dasatinib” value was 10 times and the “half-life, times longer than dasatinib” value was around 6 times. Also, the microsomal CLint in data set [1] (liver microsomes, human liver microsomal stability, read-out: Intrinsic clearance) turned out to be 24 µL/min/mg. In addition, in “in vitro”, the Papp A→B is 6.8 ×10⁻⁶ cm/s and the Papp B→A is 20 ×10⁻⁶ cm/s. Moreover, in the data set on MDR1, the Papp A→B was below 0.8 ×10⁻⁶ cm/s and the apparent permeability from basolateral to apical (Papp B→A) was 20 ×10⁻⁶ cm/s. Also, in [2], the microsomal CLint stood at 22 µL/min/mg. For the same compound, the “sensitisation of tumour cells to TNF attack” value with PANC-1-luc cells is on record as “sensitisation of tumour-cells to in-vitro TNF-attack”.

For the compound `COc1c(F)cccc1NC(=O)c1cnc(Nc2cc(N3CCN(CCO)CC3)nc(C)n2)s1` [Compound B4, N-(3-fluoro-2-methoxyphenyl)-2-((6-(4-(2-hydroxyethyl)piperazin-1-yl)-2-methylpyrimidin-4-yl)amino)thiazole-5-carboxamide], the “tumour cell cytotoxicity with TNF compared to inhibitor alone” value in the data set with M579-A2-luc cells was “fails to exhibit cytotoxicity”. Besides, the “inhibitory activity” value on SIK1 is “strong inhibitor or SIK1 and SIK2”; on ABL1 wt, “potent inhibitor of ABL1 & SRC”; against SIK3, “weak inhibitor of SIK3”; on SIK2, “strong inhibitor or SIK1 and SIK2”; against SRC, “potent inhibitor of ABL1 & SRC”.

Turning to `CCOc1cccc(Cl)c1NC(=O)c1cnc(Nc2cc(N3CCN(CCO)CC3)nc(C)n2)s1` [Compound B8, N-(2-Chloro-6-ethoxyphenyl)-2-((6-(4-(2-hydroxyethyl)piperazin-1-yl)-2-methylpyrimidin-4-yl)amino)thiazole-5-carboxamide], in the data set on M579-A2-luc cells, the “tumour cell cytotoxicity with TNF compared to inhibitor alone” value is listed as “fails to exhibit cytotoxicity”. The “inhibitory activity” value against SIK1, at SIK3 and against SIK2 was “low inhibitory activity against SIK family members” throughout.

On to `Cc1ccc(NC(=O)c2ccc(CN3CCN(C)CC3)cc2)cc1Nc1nccc(-c2cccnc2)n1` [imatinib], for which the intracranial tumour growth entry in the data set on K562 CML cells (200 mg/kg/day) is on record as “failed to inhibit intracranial tumour growth”. Moreover, in the data set with K562 human CML tumours, the tumour response entry is reported as “failed to produce a comparative response”.
